{
  "source": "patent US10092566B2",
  "about": "“Composition for controlling a gut immunity and use thereof” (SEOUL NATIONAL UNIVERSITY R&DB FOUNDATION, priority 2013, dated 2018)",
  "key": {"DUOX2": {"system": "DUOX2", "experiment": "ROS measurement in human epithelial cells (Caco-2, NHNE; DCF-DA)", "assay_type": "cell-based", "conditions": "uracil 50 nM, 15 minutes; Caco-2 and normal human nasal epithelial cells", "source_text": "Human middle turbinated bone specimens were obtained from healthy volunteers after the research proposal was approved by Yonsei University College of Medicine Audit Committee. The culture system used for normal human nasal epithelial (NHNE) cells is disclosed in the previous research (Yoon et al., Am J Respir Cell Mol Biol 16, pp. 724-731, 1997; Yoon et al., Ann Otol Rhinol Laryngol 109, pp. 594-601, 2000). Briefly speaking, two passages of NHNE cells (1×10^5 cells/culture) were inoculated into a Transwell-transparent culturing insert characterized by 24.5 mm and 0.45 μm pore sizes (Costar Co., Corning, N.Y., USA) containing 0.5 mL of culturing media. The cells were cultured in a 1:1 mixture containing basic epithelium growth media including all additives disclosed in the previous research (Yoon et al., Ann Otol Rhinol Laryngol 109, pp. 594-601, 2000) and Dulbecco' s Modified Eagle Medium (DMEM). […]\nAfter stimulating NHNE cells or Caco-2 cells, the cells were washed with Hanks' balanced salt solution (HBSS), were placed in Krebs-Ringer solution containing 5 μM of 2′,7′-dichlorofluorescin diacetate (DCF-DA; Molecular Probes, Eugene Oreg., USA), and cultured in darkness for 10 minutes. […] Fluorescence was measured at an excitation wavelength of 488 nm and an emission wavelength ranging from 515 nm to 540 nm. […]"}, "Upd3-JAK-STAT pathway": {"system": "Upd3-JAK-STAT pathway", "experiment": "Epithelial cell renewal program and Upd3-JAK-STAT reporter analysis", "assay_type": "in vivo, Drosophila", "method": "To examine a renewal program for epithelial cells, a 5% sucrose solution containing 20 nM of uracil (for 16 hours) or different bacteria (approx. 5×10^8 cells; E. carotovora, E. carotovora-pyrE::Tn5 and E. carotovora-pyrE::Tn5-pyrE for 22 hours) was orally administered to genetically different adult Drosophila (5 to 6 days old). For the recovery experiment, Drosophila coingested URA− strain (E. carotovora-pyrE::Tn5) and 1 nM of uracil. Following the dissection of the gut, the gut was treated with primary antibodies [anti-phospho-histone H3 (1:2000 dilution; Millipore), anti-LacZ (1:1000 dilution; Cappel), or anti-Prospero (1:100 dilution; Developmental Studies Hybridoma Bank)]. Then, the gut was treated with secondary antibodies (Alexa Fluor 568 goat anti-rabbit IgG or Alexa Fluor 488 goat anti-murine IgG (Invitrogen)). DAPI was used for nuclear staining.\nDrosophila containing esg-GAL4> UAS-GFP were used to analyze ISC proliferation and differentiation. A 5% sucrose solution containing 20 nM of uracil (for 16 hours) or different bacteria (E. carotovora, E. carotovora-pyrE::Tn5, and E. carotovora-pyrE::Tn5-pyrE, approx. 5×10^8 cells, for 22 hours) was orally administered to Drosophila (5 to 6 days old). For the recovery experiment, Drosophila coingested a URA− strain (E. carotovora-pyrE::Tn5) and 1 nM of uracil. […]"}},
  "data": [
    {"smiles": "O=c1cc[nH]c(=O)[nH]1", "note": "[uracil]", "values": [
      {"measurement": "DUOX-dependent ROS generation in human mucosal epithelial cells", "setting": "DUOX2", "result": "able to activate DUOX-dependent ROS generation"},
      {"measurement": "restoration of infection-induced Upd3-JAK-STAT signaling, ISC proliferation, differentiation and enteroblast accumulation", "setting": "Upd3-JAK-STAT pathway; coingestion of 1 nM uracil with URA− strain E. carotovora-pyrE::Tn5", "result": "sufficient to restore"},
      {"measurement": "Upd3-JAK-STAT pathway activation and epithelial cell renewal by uracil ingestion alone", "setting": "Upd3-JAK-STAT pathway; uracil 20 nM, PLCβ-dependent", "result": "sufficient to trigger"}
    ]}
  ]
}
